Laboratory results: patent publication US20030225152A1, “3-(Arylamino)methylene-1, 3-dihydro-2h-indol-2-ones as kinase inhibitors” (priority 2001, published 2003)

Test system: VEGF induced increases in intracellular calcium levels in HUVEC (human umbilical vein endothelial cells)
Test: VEGF Stimulated Ca++ Signal in vitro (FLIPR)
Format: cell-based
Details: Homo sapiens, 0.01 to 10.0 μM, VEGF 5 ng/mL
Method: VEGF Stimulated Ca^++ Signal in vitro
Automated FLIPR (Fluorometric Imaging Plate Reader) technology was used to screen for inhibitors of VEGF induced increases in intracellular calcium levels in fluorescent dye loaded endothelial cells. HUVEC (human umbilical vein endothelial cells) (Clonetics) were seeded in 96-well fibronectin coated black-walled plates overnight at 37° C./5%CO2. Cells were loaded with calcium indicator Fluo-4 for 45 minutes at 37° C. Cells were washed 4 times (Original Cell Wash, Labsystems) to remove extracellular dye. Test compounds were reconstituted in 100% DMSO and added to the cells to give a final DMSO concentration of 0.1%. For screening, cells were pre-incubated with test agents for 30 minutes, at a single concentration (10 μM) or at concentrations ranging from 0.01 to 10.0 μM followed by VEGF stimulation (5 ng/mL). Changes in fluorescence at 516 nm were measured simultaneously in all 96 wells using a cooled CCD camera. Data were generated by determining max-min fluorescence levels for unstimulated, stimulated, and drug treated samples. IC50 values for test compounds were calculated from % inhibition of VEGF stimulated responses in the absence of inhibitor.

Structure (SMILES) | IC50 [nM]
Cc1cccc2c1C(=CNc1ccc(CCCCN3CCCCC3)cc1)C(=O)N2 [Example 320, 4-Methyl-3-{[4-(4-piperidin-1-yl-butyl)-phenylamino]-methylene}-1,3-dihydro-indol-2-one] | 330
O=C1Nc2cccc(F)c2C1=CNc1ccc(CCCCN2CCCCC2)cc1 [Example 321, 4-Fluoro-3-{[4-(4-piperidin-1-yl-butyl)-phenylamino]-methylene}-1,3-dihydro-indol-2-one] | 1180

Target: T1, cytoplasmic domain of the human VEGF receptor (VEGFR-2) (Homo sapiens, UniProt P35968)
T1 construct: The cytoplasmic domain of the human VEGF receptor (VEGFR-2) was expressed as a Histidine-tagged fusion protein; Histidine tag
T1 sequence (P35968 786-1356): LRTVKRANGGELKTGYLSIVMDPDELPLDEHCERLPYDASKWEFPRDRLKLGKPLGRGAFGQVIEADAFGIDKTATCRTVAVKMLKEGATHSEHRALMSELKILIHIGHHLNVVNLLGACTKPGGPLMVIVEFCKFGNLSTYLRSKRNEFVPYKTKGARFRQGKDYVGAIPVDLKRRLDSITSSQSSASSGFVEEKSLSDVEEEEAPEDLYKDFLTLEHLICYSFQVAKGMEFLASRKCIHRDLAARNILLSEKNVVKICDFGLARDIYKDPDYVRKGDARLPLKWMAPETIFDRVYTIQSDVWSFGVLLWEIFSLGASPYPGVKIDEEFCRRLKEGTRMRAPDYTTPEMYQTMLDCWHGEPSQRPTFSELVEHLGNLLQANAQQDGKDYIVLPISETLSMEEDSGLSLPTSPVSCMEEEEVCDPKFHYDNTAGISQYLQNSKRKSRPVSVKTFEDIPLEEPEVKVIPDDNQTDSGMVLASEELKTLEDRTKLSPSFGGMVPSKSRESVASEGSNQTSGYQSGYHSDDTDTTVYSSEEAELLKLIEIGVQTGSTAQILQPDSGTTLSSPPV
Test: KDR Assay
Format: biochemical
Details: His-VEGFR-2; 3.6 μM ATP
Method: The cytoplasmic domain of the human VEGF receptor (VEGFR-2) was expressed as a Histidine-tagged fusion protein following infection of insect cells using an engineered baculovirus. His-VEGFR-2 was purified to homogeneity, as determined by SDS-PAGE, using nickel resin chromatography. Kinase assays were performed in 96 well microtiter plates that were coated overnight with 30 μg of poly-Glu-Tyr (4:1) in 10 mM Phosphate Buffered Saline (PBS), pH 7.2-7.4. The plates were incubated with 1% BSA and then washed four times with PBS prior to starting the reaction. Reactions were carried out in 120 μL reaction volumes containing 3.6 μM ATP in kinase buffer (50 mM Hepes buffer pH 7.4, 20 mM MgCl2, 0.1 mM MnCl2 and 0.2 mM Na3VO4). Test compounds were reconstituted in 100% DMSO and added to the reaction to give a final DMSO concentration of 5%. Reactions were initiated by the addition 0.5 ng of purified protein. Following a ten minute incubation at 25° C., the reactions were washed four times with PBS containing 0.05% Tween-20. 100 μl of a monoclonal anti-phosphotyrosine antibody-peroxidase conjugate was diluted 1:10000 in PBS-Tween-20 and added to the wells for 30 minutes. Following four washes with PBS-Tween-20, 100 μl of O-phenylenediamine Dihydrochloride in Phosphate-citrate buffer, containing urea hydrogen peroxide, was added to the wells for 7 minutes as a colorimetric substrate for the peroxidase. The reaction was terminated by the addition of 100 μl of 2.5N H2SO4 to each well and read using a microplate ELISA reader set at 492 nm. IC50 values for compound inhibition were calculated directly from graphs of optical density (arbitrary units) versus compound concentration following subtraction of blank values.

Structure (SMILES) | IC50 [nM]
Cc1cccc2c1C(=CNc1ccc(OCCCCN3CCCCC3)cc1)C(=O)N2 [Example 246, 4-Methyl-3-{[4-(4-piperidin-1-yl-butoxy)-phenylamino]-methylene}-1,3-dihydro-indol-2-one] | 90
O=C1Nc2ccccc2C1=CNc1ccc(CN2CCCCC2)cc1 [Example 251, 3-[(4-Piperidin-1-ylmethyl-phenylamino)-methylene]-1,3-dihydro-indol-2-one] | 140
Cc1cccc2c1C(=CNc1ccc(OCCN3CCCCC3)cc1)C(=O)N2 [Example 252, 4-Methyl-3-{[4-(2-piperidin-1-yl-ethoxy)-phenylamino]-methylene}-1,3-dihydro-indol-2-one] | 150
O=C1Nc2cc(F)ccc2C1=CNc1ccc(OCCN2CCCCC2)cc1 [Example 253, 6-Fluoro-3-{[4-(2-piperidin-1-yl-ethoxy)-phenylamino]-methylene}-1,3-dihydro-indol-2-one] | 170
O=C1Nc2ccccc2C1=CNc1ccc(OCCN2CCCCC2)cc1 [Example 254, 3-{[4-(2-Piperidin-1-yl-ethoxy)-phenylamino]-methylene}-1,3-dihydro-indol-2-one] | 500
O=C1Nc2cc(F)ccc2C1=CNc1ccc(CN2CCCCC2)cc1 [Example 259, 6-Fluoro-3-[(4-piperidin-1-ylmethyl-phenylamino)-methylene]-1,3-dihydro-indol-2-one] | 300
O=C1Nc2ccc(F)cc2C1=CNc1ccc(OCCN2CCCCC2)cc1 [Example 263, 5-Fluoro-3-{[4-(2-piperidin-1-yl-ethoxy)-phenylamino]-methylene}-1,3-dihydro-indol-2-one] | 360
CCN(CC)CCOc1ccc(NC=C2C(=O)Nc3cccc(C)c32)cc1 [Example 264, 3-{[4-(2-Diethylamino-ethoxy)-phenylamino]-methylene}-4-methyl-1,3-dihydro-indol-2-one] | 70
Cc1cccc2c1C(=CNc1ccc(OCCN3CCCC3)cc1)C(=O)N2 [Example 270, 4-Methyl-3-{[4-(2-pyrrolidin-1-yl-ethoxy)-phenylamino]-methylene}-1,3-dihydro-indol-2-one] | 110
O=C1Nc2ccccc2C1=CNc1ccc(OCCN2CCCC2)cc1 [Example 272, 3-{[4-(2-Pyrrolidin-1-yl-ethoxy)-phenylamino]-methylene}-1,3-dihydro-indol-2-one] | 460
O=C1Nc2ccc(F)cc2C1=CNc1ccc(OCCN2CCCC2)cc1 [Example 274, 5-Fluoro-3-{[4-(2-pyrrolidin-1-yl-ethoxy)-phenylamino]-methylene}-1,3-dihydro-indol-2-one] | 210
Cc1cccc2c1C(=CNc1ccc(OCC3CCCN(C)C3)cc1)C(=O)N2 (stereo not drawn) [Example 278, 4-Methyl-3-{[4-(1-methyl-piperidin-3-ylmethoxy)-phenylamino]-methylene}-1,3-dihydro-indol-2-one] | 80
CN1CCCC(COc2ccc(NC=C3C(=O)Nc4cc(F)ccc43)cc2)C1 (stereo not drawn) [Example 279, 6-Fluoro-3-{[4-(1-methyl-piperidin-3-ylmethoxy)-phenylamino]-methylene}-1,3-dihydro-indol-2-one] | 160
CN1CCCC(COc2ccc(NC=C3C(=O)Nc4ccccc43)cc2)C1 (stereo not drawn) [Example 280, 3-{[4-(1-Methyl-piperidin-3-ylmethoxy)-phenylamino]-methylene}-1,3-dihydro-indol-2-one] | 460
CN1CCCC(COc2ccc(NC=C3C(=O)Nc4ccc(F)cc43)cc2)C1 (stereo not drawn) [Example 282, 5-Fluoro-3-{[4-(1-methyl-piperidin-3-ylmethoxy)-phenylamino]-methylene}-1,3-dihydro-indol-2-one] | 330
O=C1Nc2ccccc2C1=CNc1ccc(CCN2CCCCC2)cc1 [Example 284, 3-{[4-(2-Piperidin-1-yl-ethyl)-phenylamino]-methylene}-1,3-dihydro-indol-2-one] | 250
Cc1cccc2c1C(=CNc1ccc(CCN3CCCCC3)cc1)C(=O)N2 [Example 286, 4-Methyl-3-{[4-(2-piperidin-1-yl-ethyl)-phenylamino]-methylene}-1,3-dihydro-indol-2-one] | 40
O=C1Nc2ccc(F)cc2C1=CNc1ccc(CCN2CCCCC2)cc1 [Example 288, 5-Fluoro-3-{[4-(2-piperidin-1-yl-ethyl)-phenylamino]-methylene}-1,3-dihydro-indol-2-one] | 330
O=C1Nc2cc(F)ccc2C1=CNc1ccc(CCN2CCCCC2)cc1 [Example 289, 6-Fluoro-3-{[4-(2-piperidin-1-yl-ethyl)-phenylamino]-methylene}-1,3-dihydro-indol-2-one] | 260
O=C1Nc2ccccc2C1=CNc1ccc(CN2CCOCC2)cc1 [Example 290, 3-[(4-Morpholin-4-ylmethyl-phenylamino)-methylene]-1,3-dihydro-indol-2-one] | 580
Cc1cccc2c1C(=CNc1ccc(CN3CCOCC3)cc1)C(=O)N2 [Example 292, 4-Methyl-3-[(4-morpholin-4-ylmethyl-phenylamino)-methylene]-1,3-dihydro-indol-2-one] | 90
O=C1Nc2ccc(F)cc2C1=CNc1ccc(CN2CCOCC2)cc1 [Example 294, 5-Fluoro-3-[(4-morpholin-4-ylmethyl-phenylamino)-methylene]-1,3-dihydro-indol-2-one] | 380
O=C1Nc2cc(F)ccc2C1=CNc1ccc(CN2CCOCC2)cc1 [Example 295, 6-Fluoro-3-[(4-morpholin-4-ylmethyl-phenylamino)-methylene]-1,3-dihydro-indol-2-one] | 180
Cc1cccc2c1C(=CNc1ccc(NCCCN3CCOCC3)cc1)C(=O)N2 [Example 296, 4-Methyl-3-{[4-(3-morpholin-4-yl-propylamino)-phenylamino]-methylene}-1,3-dihydro-indol-2-one] | 140
O=C1Nc2ccccc2C1=CNc1ccc(NCCCN2CCOCC2)cc1 [Example 297, 3-{[4-(3-Morpholin-4-yl-propylamino)-phenylamino]-methylene}-1,3-dihydro-indol-2-one] | 390
O=C1Nc2cc(F)ccc2C1=CNc1ccc(NCCCN2CCOCC2)cc1 [Example 298, 6-Fluoro-3-{[4-(3-morpholin-4-yl-propylamino)-phenylamino]-methylene}-1,3-dihydro-indol-2-one] | 340
O=C1Nc2ccc(Cl)cc2C1=CNc1ccc(NCCCN2CCOCC2)cc1 [Example 299, 5-Chloro-3-{[4-(3-morpholin-4-yl-propylamino)-phenylamino]-methylene}-1,3-dihydro-indol-2-one] | 140
O=C1Nc2ccc(F)cc2C1=CNc1ccc(NCCCN2CCOCC2)cc1 [Example 300, 5-Fluoro-3-{[4-(3-morpholin-4-yl-propylamino)-phenylamino]-methylene}-1,3-dihydro-indol-2-one] | 420
